Source: patent publication US20060069132A1, “Azolecarboxamide herbicides” (priority 2004, published 2006)
Where two headings read alike, the source gives them in different places.

Experiments:
Surinam grass = assay: Test B pre-/postemergence herbicide test; type: in vivo, Urochloa decumbens; conditions: for pest or weed control at 125 g/ha / pest or weed control at 500 g/ha: Urochloa decumbens
In short: (§1)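 Plants compared with untreated controls 13–15 days post-treatment and given a visual 0–100 injury score. Applications: preemergence to seeds; postemergence at 1- to 4-leaf (2–18 cm); paddy species flooded, 2-leaf stage. Vehicle non-phytotoxic, surfactant included.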

cocklebur = assay: Test B pre-/postemergence herbicide test; type: in vivo, Xanthium strumarium; conditions: for pest or weed control at 125 g/ha / pest or weed control at 500 g/ha: Xanthium strumarium
In short: (§2)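 Pre: seeds sown, then sprayed. Post: 1–4-leaf plants (2–18 cm) sprayed at the same time. Paddy: flooded, treated at 2-leaf stage. Formulation: non-phytotoxic solvent with surfactant. Greenhouse 13–15 days; visual 0–100 score relative to controls.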

corn = assay: Test B pre-/postemergence herbicide test; type: in vivo, Zea mays
In short: as §1

giant foxtail = assay: Test B pre-/postemergence herbicide test; type: in vivo, Setaria faberi; conditions: for pest or weed control at 125 g/ha / pest or weed control at 500 g/ha: Setaria faberi, 336 h
In short: as §1

lambsquarters = assay: Test B pre-/postemergence herbicide test; type: in vivo, Chenopodium album
In short: as §1

morningglory = assay: Test B pre-/postemergence herbicide test; type: in vivo, Ipomoea coccinea; conditions: for pest or weed control at 125 g/ha / pest or weed control at 500 g/ha: Ipomoea, 336 h
In short: as §2

pigweed = assay: Test B pre-/postemergence herbicide test; type: in vivo, Amaranthus retroflexus
In short: as §1

velvetleaf = assay: Test B pre-/postemergence herbicide test; type: in vivo, Abutilon theophrasti; conditions: for pest or weed control at 125 g/ha / pest or weed control at 500 g/ha: Abutilon theophrasti, 336 h
In short: as §1

blackgrass = assay: Test B postemergence herbicide test; type: in vivo, Alopecurus myosuroides; conditions: postemergence
In short: (§3)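 Read-out: visual comparison with controls, scored 0 to 100, where 100 means complete control and 0 no effect. Formulated chemicals were applied postemergence to plants 2–18 cm tall (1- to 4-leaf), or to flooded-paddy plants at the 2-leaf stage, then held 13 to 15 days under glass.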

wheat = assay: Test B postemergence herbicide test; type: in vivo, Triticum aestivum; design: key to Wheat plant response rating: 0 = no effect, 100 = complete control; conditions: postemergence
In short: (§4)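 Greenhouse test; postemergence application to plants at 1–4 leaves (2–18 cm); paddy species at 2 leaves; evaluated visually vs controls at 13–15 days; scale 0–100 (100 = complete control).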

wild oat = assay: Test B postemergence herbicide test; type: in vivo, Avena fatua; conditions: postemergence
In short: as §4

rice = assay: Test B flooded paddy test; type: in vivo, Oryza sativa; conditions: 1000 g ai/ha, scale 0 to 100 (0 no effect, 100 complete control)
In short: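 Formulated test chemicals went onto postemergence plants measuring 2 to 18 cm, at one to four leaves. For the paddy assay, species had reached two leaves. Scoring took place 13–15 days later by eye, relative to untreated plants, using 0 for no effect up to 100 for full control.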

[1] = tested on: small flower umbrella sedge; assay: Test B flooded paddy test; type: in vivo, Cyperus difformis; conditions: 1000 g ai/ha, scale 0 to 100 (0 no effect, 100 complete control)
In short: as §3

ducksalad = assay: Test B flooded paddy test; type: in vivo, Heteranthera limosa; conditions: 1000 g ai/ha, scale 0 to 100 (0 no effect, 100 complete control)
In short: as §3

barnyardgrass = assay: Test B flooded paddy test; type: in vivo, Echinochloa crus-galli; conditions: 1000 g ai/ha, scale 0 to 100 (0 no effect, 100 complete control)
In short: as §3

[2] = 125 g ai/ha, 0 is no effect, 100 is complete control, preemergence
[3] = 125 g ai/ha, visual rating, scale 0 (no effect) to 100 (complete control), postemergence
[4] = 500 g ai/ha, visual rating, 0 = no effect, 100 = complete control, preemergence
[5] = postemergence, 500 g ai/ha, scale 0 to 100, 0 is no effect, 100 is complete control
[6] = 125 g ai/ha, visual rating, scale 0 (no effect) to 100 (complete control)
[7] = 500 g ai/ha, scale 0 to 100, 0 is no effect, 100 is complete control

CCN(CC)C(=O)c1cncc(NC(=O)c2cc(C(C)(C)C)nn2CC)c1 [Compound 261, 5-[[[3-(1,1-dimethylethyl)-1-ethyl-1H-pyrazol-5-yl]carbonyl]amino]-N,N-diethyl-3-pyridinecarboxamide]
pest or weed control at 125 g/ha (Surinam grass; post-emergence, postemergence, 125 g ai/ha, visual rating, scale 0 (no effect) to 100 (complete control), read-out: Surinam Grass plant response rating): 0%
pest or weed control at 500 g/ha (Surinam grass; post-emergence, postemergence, 500 g ai/ha, scale 0 to 100, 0 is no effect, 100 is complete control, read-out: Surinam Grass plant response rating): 20%
pest or weed control at 125 g/ha (Surinam grass; pre-emergence, 125 g ai/ha, 0 = no effect, 100 = complete control, read-out: Surinam Grass plant response rating (0 to 100 scale)): 0%
pest or weed control at 500 g/ha (Surinam grass; pre-emergence, 500 g ai/ha, visual rating, 0 = no effect, 100 = complete control, read-out: Plant response rating, Surinam Grass): 0%
pest or weed control at 125 g/ha (cocklebur; post-emergence, postemergence, 125 g ai/ha, visual rating, scale 0 (no effect) to 100 (complete control), read-out: Cocklebur plant response rating): 0%
pest or weed control at 500 g/ha (cocklebur; post-emergence, postemergence, 500 g ai/ha, visual rating, scale 0 (no effect) to 100 (complete control), read-out: Cocklebur plant response rating): 10%
pest or weed control at 125 g/ha (cocklebur; pre-emergence, 125 g ai/ha, 0 = no effect, 100 = complete control, read-out: Cocklebur plant response rating (0 to 100 scale)): 0%
pest or weed control at 500 g/ha (cocklebur; pre-emergence, 500 g ai/ha, visual rating, 0 = no effect, 100 = complete control, read-out: Plant response rating, Cocklebur): 0%
plant injury at 125 g/ha (corn; Zea mays, post-emergence, postemergence, 125 g ai/ha, visual rating, scale 0 (no effect) to 100 (complete control), read-out: Corn plant response rating): 10%
plant injury at 500 g/ha (corn; Zea mays, post-emergence, postemergence, 500 g ai/ha, scale 0 to 100, 0 is no effect, 100 is complete control, read-out: Corn plant response rating): 20%
Corn plant response rating (crop injury, 0 = no effect, 100 = complete kill) at 500 g/ha (corn; Zea mays, pre-emergence, 500 g ai/ha, visual rating, 0 = no effect, 100 = complete control): 0%
pest or weed control at 125 g/ha (giant foxtail; post-emergence, postemergence, 125 g ai/ha, visual rating, scale 0 (no effect) to 100 (complete control), read-out: Foxtail, Giant plant response rating): 0%
pest or weed control at 500 g/ha (giant foxtail; post-emergence, postemergence, 500 g ai/ha, scale 0 to 100, 0 is no effect, 100 is complete control, read-out: Foxtail, Giant plant response rating): 0%
pest or weed control at 125 g/ha (giant foxtail; pre-emergence, 125 g ai/ha, 0 = no effect, 100 = complete control, read-out: Foxtail, Giant plant response rating (0 to 100 scale)): 0%
pest or weed control at 500 g/ha (giant foxtail; pre-emergence, 500 g ai/ha, visual rating, 0 = no effect, 100 = complete control, read-out: Plant response rating, Foxtail, Giant): 0%
pest or weed control at 125 g/ha (lambsquarters; Chenopodium album, post-emergence, 336 h, postemergence, 125 g ai/ha, visual rating, scale 0 (no effect) to 100 (complete control), read-out: Lambsquarters plant response rating): 10%
pest or weed control at 500 g/ha (lambsquarters; Chenopodium album, post-emergence, 336 h, postemergence, 500 g ai/ha, scale 0 to 100, 0 is no effect, 100 is complete control, read-out: Lambsquarters plant response rating): 60%
pest or weed control at 125 g/ha (morningglory; post-emergence, postemergence, 125 g ai/ha, visual rating, scale 0 (no effect) to 100 (complete control), read-out: Morningglory plant response rating): 0%
pest or weed control at 500 g/ha (morningglory; post-emergence, postemergence, 500 g ai/ha, scale 0 to 100, 0 is no effect, 100 is complete control, read-out: Morningglory plant response rating): 0%
pest or weed control at 125 g/ha (morningglory; pre-emergence, 125 g ai/ha, 0 = no effect, 100 = complete control, read-out: Morningglory plant response rating (0 to 100 scale)): 0%
pest or weed control at 500 g/ha (morningglory; pre-emergence, 500 g ai/ha, visual rating, 0 = no effect, 100 = complete control, read-out: Plant response rating, Morningglory): 0%
pest or weed control at 125 g/ha (pigweed; Amaranthus retroflexus, post-emergence, 336 h, postemergence, 125 g ai/ha, visual rating, scale 0 (no effect) to 100 (complete control), read-out: Pigweed plant response rating): 20%
pest or weed control at 500 g/ha (pigweed; Amaranthus retroflexus, post-emergence, 336 h, postemergence, 500 g ai/ha, scale 0 to 100, 0 is no effect, 100 is complete control, read-out: Pigweed plant response rating): 70%
pest or weed control at 125 g/ha (pigweed; Amaranthus retroflexus, pre-emergence, 336 h, 125 g ai/ha, 0 = no effect, 100 = complete control, read-out: Pigweed plant response rating (0 to 100 scale)): 0%
pest or weed control at 125 g/ha (velvetleaf; post-emergence, postemergence, 125 g ai/ha, visual rating, scale 0 (no effect) to 100 (complete control), read-out: Velvetleaf plant response rating): 0%
pest or weed control at 500 g/ha (velvetleaf; post-emergence, postemergence, 500 g ai/ha, scale 0 to 100, 0 is no effect, 100 is complete control, read-out: Velvetleaf plant response rating): 0%
pest or weed control at 125 g/ha (velvetleaf; pre-emergence, 125 g ai/ha, 0 = no effect, 100 = complete control, read-out: Velvetleaf plant response rating (0 to 100 scale)): 0%
pest or weed control at 500 g/ha (velvetleaf; pre-emergence, 500 g ai/ha, visual rating, 0 = no effect, 100 = complete control, read-out: Plant response rating, Velvetleaf): 20%
pest or weed control at 125 g/ha (blackgrass; Alopecurus myosuroides, post-emergence, 336 h, 125 g ai/ha, visual rating, scale 0 (no effect) to 100 (complete control), read-out: Blackgrass plant response rating): 0%
pest or weed control at 500 g/ha (blackgrass; Alopecurus myosuroides, post-emergence, 336 h, 500 g ai/ha, visual rating, scale 0 (no effect) to 100 (complete control), read-out: Blackgrass plant response rating): 20%
plant injury at 125 g/ha (wheat; Triticum aestivum, post-emergence, 336 h, 125 g ai/ha, visual rating, scale 0 (no effect) to 100 (complete control), read-out: Wheat plant response rating): 0%
plant injury at 500 g/ha (wheat; Triticum aestivum, post-emergence, 336 h, 500 g ai/ha, scale 0 to 100, 0 is no effect, 100 is complete control, read-out: Wheat plant response rating): 20%
pest or weed control at 125 g/ha (wild oat; Avena fatua, post-emergence, 336 h, 125 g ai/ha, visual rating, scale 0 (no effect) to 100 (complete control), read-out: Oat, Wild plant response rating): 0%
pest or weed control at 500 g/ha (wild oat; Avena fatua, post-emergence, 336 h, 500 g ai/ha, scale 0 to 100, 0 is no effect, 100 is complete control, read-out: Oat, Wild plant response rating): 20%
plant injury at 1000 g/ha (rice; Oryza sativa, 336 h, read-out: Rice plant response rating): 60%
pest or weed control at 1000 g/ha ([1]; Cyperus difformis, 336 h, read-out: Sedge, Umbrella plant response rating): 30%
pest or weed control at 1000 g/ha (ducksalad; Heteranthera limosa, 336 h, read-out: Ducksalad plant response rating): 80%
pest or weed control at 1000 g/ha (barnyardgrass; Echinochloa crus-galli, 336 h, read-out: Barnyardgrass plant response rating): 0%

C#CCNC(=O)c1cccc(NC(=O)c2sc(C(C)(C)C)nc2CC)c1 [Compound 319]
Plant response rating (0 to 100 scale), Surinam Grass (Surinam grass; [2]): 20
Surinam Grass plant response rating (Surinam grass; [3]): 10
Plant response rating, Surinam Grass (Surinam grass; [4]): 60
Surinam Grass plant response rating (Surinam grass; [5]): 20
Plant response rating (0 to 100 scale), Cocklebur (cocklebur; [2]): 0
Cocklebur plant response rating (cocklebur; [3]): 20
Plant response rating, Cocklebur (cocklebur; [4]): 10
Cocklebur plant response rating (cocklebur; [5]): 40
Plant response rating (0 to 100 scale), Corn (corn; [2]): 10
Corn plant response rating (corn; [3]): 20
Plant response rating, Corn (corn; [4]): 40
Corn plant response rating (corn; [5]): 20
Plant response rating (0 to 100 scale), Foxtail, Giant (giant foxtail; [2]): 20
Foxtail, Giant plant response rating (giant foxtail; [3]): 20
Plant response rating, Foxtail, Giant (giant foxtail; [4]): 50
Foxtail, Giant plant response rating (giant foxtail; [5]): 30
Plant response rating (0 to 100 scale), Lambsquarters (lambsquarters; [2]): 20
Lambsquarters plant response rating (lambsquarters; [3]): 50
Plant response rating, Lambsquarters (lambsquarters; [4]): 100
Lambsquarters plant response rating (lambsquarters; [5]): 60
Plant response rating (0 to 100 scale), Morningglory (morningglory; [2]): 10
Morningglory plant response rating (morningglory; [3]): 10
Plant response rating, Morningglory (morningglory; [4]): 20
Morningglory plant response rating (morningglory; [5]): 20
Plant response rating (0 to 100 scale), Pigweed (pigweed; [2]): 60
Pigweed plant response rating (pigweed; [3]): 30
Plant response rating, Pigweed (pigweed; [4]): 100
Pigweed plant response rating (pigweed; [5]): 40
Plant response rating (0 to 100 scale), Velvetleaf (velvetleaf; [2]): 0
Velvetleaf plant response rating (velvetleaf; [3]): 10
Plant response rating, Velvetleaf (velvetleaf; [4]): 30
Velvetleaf plant response rating (velvetleaf; [5]): 20
Blackgrass plant response rating (blackgrass; [6]): 0
Blackgrass plant response rating (blackgrass; [7]): 0
Wheat plant response rating (wheat; [6]): 10
Wheat plant response rating (wheat; [7]): 30
Oat, Wild plant response rating (wild oat; [6]): 20
Oat, Wild plant response rating (wild oat; [7]): 20
Rice plant response rating (rice): 70
Sedge, Umbrella plant response rating [1]: 80
Ducksalad plant response rating (ducksalad): 90
Barnyardgrass plant response rating (barnyardgrass): 10
